The results in this text go back to patent US20140094462A1, “SONIC HEDGEHOG MODULATORS” (priority 2009, published 2014).

T1 sequence (Q15465 24-197 limits assumed, species assumed): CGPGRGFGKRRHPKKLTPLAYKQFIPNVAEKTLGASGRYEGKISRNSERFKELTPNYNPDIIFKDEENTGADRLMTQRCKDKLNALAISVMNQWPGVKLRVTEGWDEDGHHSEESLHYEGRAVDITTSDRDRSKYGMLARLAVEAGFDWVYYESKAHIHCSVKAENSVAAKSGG

The test concerns the target T1, ShhN protein (Homo sapiens, UniProt Q15465).
T1 construct: auto-cleavage of full length Shh into an active 20 kD N-terminal fragment (ShhN); purchased R&D Systems
The test is described as follows: Surface Plasmon Resonance (SPR) protein binding assay on immobilized ShhN. Conditions: SPR, Biacore T100, ShhN immobilized on CM4 chip, 25° C., compound 0.78 μM-25 μM; read-out: KD. How it is done: Biacore™ T100 (GE Healthcare, Uppsala, Sweden) was used to perform the experiments described herein. Sensor surface preparation and interaction analyses experiments were performed at 25° C.
Control surfaces were prepared similarly without protein derivatization and were utilized as a reference surfaces for compound binding experiments.
Zero concentration blank buffer cycles were included as negative control samples.
Data analysis was carried out using Biacore T100 evaluation software v1.1.1. […] Solvent correction was then applied as described previously.
Take `CC(C)c1ccc(CNC(=O)C[C@@H]2C/C=C/CCC(=O)O[C@H](c3ccccc3)CNC2=O)cc1` [EJ]: the dissociation constant (Kd) was 1 to 100 µM.

Regarding `O=C(C[C@@H]1C/C=C/CCC(=O)O[C@H](c2ccccc2)CNC1=O)NCc1ccc(Cl)c(C(F)(F)F)c1` [EK], the Kd is above 100 µM. Regarding `O=C(C[C@@H]1C/C=C/CCC(=O)O[C@H](c2ccccc2)CNC1=O)NCCc1ccc(Cl)cc1` [EL], the Kd was above 100 µM.

Turning to `O=C(C[C@@H]1C/C=C/CCC(=O)O[C@H](c2ccccc2)CNC1=O)Nc1ccc(Cl)cc1` [EM], the Kd was in the range of 1 to 100 µM. With `O=C(C[C@@H]1C/C=C/CCC(=O)O[C@H](c2ccccc2)CNC1=O)NCc1ccccc1` [EN], the Kd is 1 to 100 µM. As for `O=C(C[C@@H]1C/C=C/CCC(=O)O[C@H](c2ccccc2)CNC1=O)NCc1cccc(Cl)c1` [EO], the Kd was above 100 µM.

As to `CN(Cc1ccc(Cl)cc1)C(=O)C[C@@H]1C/C=C/CCC(=O)O[C@H](c2ccccc2)CN(C)C1=O` [EP], the Kd is above 100 µM.

On to `COc1ccc(CNC(=O)C[C@@H]2C/C=C/CCC(=O)O[C@H](c3ccccc3)CNC2=O)cc1` [EQ], for which the Kd lay within 1 to 100 µM.

As to `CN1CCN(C(=O)C[C@@H]2C/C=C/CCC(=O)O[C@H](c3ccccc3)CNC2=O)CC1` [ET], the Kd was in the range of 1 to 100 µM. Under `O=C1CC/C=C/C[C@@H](CC(=O)N2CCN(c3ncccn3)CC2)C(=O)NC[C@@H](c2ccccc2)O1` [EU] stands 1 to 100 µM; under `O=C(C[C@@H]1C/C=C/CCC(=O)O[C@H](c2ccccc2)CN(Cc2ccccc2)C1=O)NCc1ccc(Cl)cc1` [EV], above 100 µM. On to `O=C(C[C@@H]1C/C=C/CCC(=O)O[C@H](c2ccccc2)CNC1=O)NC(c1ccccc1)c1ccccc1` [EW], for which the Kd is above 100 µM. For the compound `N[C@@H]1C/C=C/CCC(=O)N[C@H](c2ccccc2)COC1=O` [Example AC, (3R,11R,E)-11-amino-3-phenyl-1-oxa-4-azacyclododec-8-ene-5,12-dione], the Kd was 1 to 100 µM. Turning to `C[C@H]1[C@@H](c2ccccc2)OC(=O)CC[C@H](O)[C@@H](O)C[C@@H](CC(=O)NCc2ccc(Cl)cc2)C(=O)N1C` [Example BB, N-(4-chlorobenzyl)-2-((2R,3S,6S,8S,9S)-8,9-dihydroxy-3,4-dimethyl-5,12-dioxo-2-phenyl-1-oxa-4-azacyclododecan-6-yl)acetamide], the Kd was 1 to 100 µM.

Regarding `C[C@@H]1CCCCCC(=O)OC[C@@H]2CCCN2C1=O` [Example BE, (9R,14aS)-9-methyldecahydro-1H-pyrrolo[2,1-c][1,4]oxaazacyclododecine-3,10-dione], the Kd is 1 to 100 µM. Under `O=C(C[C@@H]1C/C=C/CCC(=O)N[C@@H]2c3ccccc3C[C@@H]2OC1=O)NCc1ccc(Cl)cc1` [Example BJ, N-(4-chlorobenzyl)-2-((3S,10aR,15aS,E)-2,9-dioxo-2,3,4,7,8,9,10,10a,15,15a-decahydroindeno[2,1-b][1,4]oxaazacyclododecin-3-yl)acetamide] stands 1 to 100 µM. `CN1C[C@@H](c2ccccc2)OC(=O)CC/C=C/C[C@@H](Cc2ccc(Cl)cc2)C1=O` [Example BR, (2R,6S,E)-6-(4-chlorobenzyl)-4-methyl-2-phenyl-1-oxa-4-azacyclododec-8-ene-5,12-dione]: the Kd was above 100 µM. On to `C[C@@H]1C[C@H](O)[C@@H](O)CCC(=O)N[C@H](c2ccccc2)COC1=O` [Example BU, (3R,8S,9S,11R)-8,9-dihydroxy-11-methyl-3-phenyl-1-oxa-4-azacyclododecane-5,12-dione], for which the Kd is 1 to 100 µM. For the compound `C[C@@H]1C/C=C/CCC(=O)N[C@@H]2c3ccccc3C[C@@H]2OC1=O` [Example BV, (3R,10aR,15aS,E)-3-methyl-3,4,7,8,10,10a,15,15a-octahydroindeno[2,1-b][1,4]oxaazacyclododecine-2,9-dione], the Kd was 0.1 to 1 µM.

For the compound `C[C@@H]1C/C=C/C[C@@H](CC(=O)NCc2ccc(Cl)cc2)C(=O)NC[C@@H](c2ccccc2)OC1=O` [Example EA, N-(4-chlorobenzyl)-2-((2R,6S,11R,E)-11-methyl-5,12-dioxo-2-phenyl-1-oxa-4-azacyclododec-8-en-6-yl)acetamide], the Kd was in the range of 0.1 to 1 µM. The result for `N[C@H]1C/C=C/C[C@@H](CC(=O)NCc2ccc(Cl)cc2)C(=O)NC[C@@H](c2ccccc2)OC1=O` [Example EB, 2-((2R,6S,11S,E)-11-amino-5,12-dioxo-2-phenyl-1-oxa-4-azacyclododec-8-en-6-yl)-N-(4-chlorobenzyl)acetamide] reads 1 to 100 µM; that for `O=C(C[C@@H]1C/C=C/C[C@H](O)C(=O)O[C@H](c2ccccc2)CNC1=O)NCc1ccc(Cl)cc1` [Example EC, N-(4-chlorobenzyl)-2-((2R,6S,11S,E)-11-hydroxy-5,12-dioxo-2-phenyl-1-oxa-4-azacyclododec-8-en-6-yl)acetamide], below 0.1 µM; that for `O=C(C[C@@H]1C/C=C/C[C@H](Cc2ccccc2)C(=O)N[C@H](c2ccccc2)COC1=O)NCc1ccc(Cl)cc1` [Example ED, 2-((3R,6R,11S,E)-6-benzyl-5,12-dioxo-3-phenyl-1-oxa-4-azacyclododec-8-en-11-yl)-N-(4-chlorobenzyl)acetamide], above 100 µM. On to `C[C@H]1C/C=C\C[C@@H](CC(=O)NCc2ccc(Cl)cc2)C(=O)OC[C@@H](c2ccccc2)NC1=O` [Example EE, N-(4-chlorobenzyl)-2-((3R,6S,11S,Z)-6-methyl-5,12-dioxo-3-phenyl-1-oxa-4-azacyclododec-8-en-11-yl)acetamide], for which the Kd was above 100 µM. Turning to `CN1C[C@@H](c2ccccc2)OC(=O)CC/C=C/C[C@@H](CC(=O)NCC2CCOCC2)C1=O` [Example EX, 2-((2R,6S,E)-4-methyl-5,12-dioxo-2-phenyl-1-oxa-4-azacyclododec-8-en-6-yl)-N-((tetrahydro-2H-pyran-4-yl)methyl)acetamide], the Kd was 1 to 100 µM. On to `COc1ccccc1[C@@H]1COC(=O)[C@H](CC(=O)NCc2ccc(Cl)cc2)C/C=C/CCC(=O)N1` [Example EY, N-(4-chlorobenzyl)-2-((3R,11S,E)-3-(2-methoxyphenyl)-5,12-dioxo-1-oxa-4-azacyclododec-8-en-11-yl)acetamide], for which the Kd is above 100 µM. As to `C[C@H]1[C@@H](c2ccccc2)OC(=O)CC/C=C\C[C@@H](CC(=O)NCc2ccc(Cl)cc2)C(=O)N1C` [Example EZ, N-(4-chlorobenzyl)-2-((2R,3S,6S,Z)-3,4-dimethyl-5,12-dioxo-2-phenyl-1-oxa-4-azacyclododec-8-en-6-yl)acetamide], the equilibrium dissociation constant (Kd) was above 100 µM. The result for `C[C@H]1[C@@H](c2ccccc2)OC(=O)CC/C=C/C[C@@H](CC(=O)NCCCC(F)(F)F)C(=O)N1C` [Example FA, 2-((2R,3S,6S,E)-3,4-dimethyl-5,12-dioxo-2-phenyl-1-oxa-4-azacyclododec-8-en-6-yl)-N-(4,4,4-trifluorobutyl)acetamide] reads above 100 µM; that for `O=C(C[C@@H]1CCCCCC(=O)OC[C@@H]2CCCN2C1=O)NCc1ccc(Cl)cc1` [Example FB, N-(4-chlorobenzyl)-2-((9S,14aS)-3,10-dioxododecahydro-1H-pyrrolo[2,1-c][1,4]oxaazacyclododecin-9-yl)acetamide], 1 to 100 µM. `C[C@@H]1NC(=O)[C@H](CC(=O)NCc2ccc(Cl)cc2)C/C=C/CCC(=O)O[C@@H]1c1ccccc1` [FP, N-(4-chlorobenzyl)-2-((2R,3S,6S,E)-3-methyl-5,12-dioxo-2-phenyl-1-oxa-4-azacyclododec-8-en-6-yl)acetamide]: the Kd is above 100 µM.

`CC(C)[C@@H]1COC(=O)[C@H](CC(=O)NCc2ccc(Cl)cc2)C/C=C/CCC(=O)N1` [FQ, N-(4-chlorobenzyl)-2-((3R,11S,E)-3-isopropyl-5,12-dioxo-1-oxa-4-azacyclododec-8-en-11-yl)acetamide]: the Kd lay in the range of 0.1 to 1 µM. For `CCCC[C@@H]1COC(=O)[C@H](CC(=O)NCc2ccc(Cl)cc2)C/C=C/CCC(=O)N1` [FR, 2-((3R,11S,E)-3-butyl-5,12-dioxo-1-oxa-4-azacyclododec-8-en-11-yl)-N-(4-chlorobenzyl)acetamide], the Kd fell in the range of 1 to 100 µM. For the compound `O=C(C[C@@H]1C/C=C/CCC(=O)N[C@H](Cc2ccccc2)COC1=O)NCc1ccc(Cl)cc1` [FS, 2-((3R,11S,E)-3-benzyl-5,12-dioxo-1-oxa-4-azacyclododec-8-en-11-yl)-N-(4-chlorobenzyl)acetamide], the Kd lay in the range of 1 to 100 µM. Take `O=C(C[C@@H]1C/C=C/CCC(=O)N2CCC[C@H]2COC1=O)NCc1ccc(Cl)cc1` [FT, N-(4-chlorobenzyl)-2-((4S,14aS,E)-3,10-dioxo-3,4,5,8,9,10,12,13,14,14a-decahydro-1H-pyrrolo[2,1-c][1,4]oxaazacyclododecin-4-yl)acetamide]: the Kd fell in the range of 1 to 100 µM. With `O=C(C[C@@H]1C/C=C/CCC(=O)N[C@H](C2CCCCC2)COC1=O)NCc1ccc(Cl)cc1` [FU, N-(4-chlorobenzyl)-2-((3R,11S,E)-3-cyclohexyl-5,12-dioxo-1-oxa-4-azacyclododec-8-en-11-yl)acetamide], the Kd was above 100 µM. As for `CC(C)(C)OC(=O)C[C@@H]1C/C=C/CCC(=O)N[C@H](c2ccc(Cl)cc2)COC1=O` [FV], the Kd was below 0.1 µM. In the case of `CC(C)(C)OC(=O)C[C@@H]1C/C=C/CCC(=O)N[C@@H]2c3ccccc3C[C@@H]2OC1=O` [FW, tert-butyl 2-((3S,10aR,15aS,E)-2,9-dioxo-2,3,4,7,8,9,10,10a,15,15a-decahydroindeno[2,1-b][1,4]oxaazacyclododecin-3-yl)acetate], the Kd is below 0.1 µM. The result for `CC(C)(C)OC(=O)C[C@@H]1C/C=C/CCC(=O)N[C@H](c2ccc(F)cc2)COC1=O` [FX] reads below 0.1 µM. `COc1ccccc1[C@@H]1COC(=O)[C@H](CC(=O)OC(C)(C)C)C/C=C/CCC(=O)N1` [FY]: the Kd was below 0.1 µM.

As to `O=C(C[C@@H]1C/C=C/CCC(=O)N[C@H](c2ccccc2)COC1=O)NCC1CCOCC1` [FZ, 2-((3R,11S,E)-5,12-dioxo-3-phenyl-1-oxa-4-azacyclododec-8-en-11-yl)-N-((tetrahydro-2H-pyran-4-yl)methyl)acetamide], the Kd is 1 to 100 µM.
